Results taken from PMC8110578, “Phenylethynylbenzyl-modified biguanides inhibit pancreatic cancer tumor growth” (Scientific Reports, 2021).
pIC50: −log10 of the molar value.

Columns and labels:
red blood cells = experiment: Hemolytic activity of PEB-biguanidium salts; type: cell-based; settings: red blood cells 2% v/v in PBS, 1 h at 37 °C
Protocol: The toxicity of PEB-Biguanidiums salts was estimated through their hemolytic activity by incubating red blood cells (RBC) with the compounds for 1 h (See Supplementary Table S13 and Supplementary Fig. S29).
Experimental. Red blood cells in Alsever’s solution were centrifuged for 10 min at 300g, washed 3 times with PBS buffer, and resuspended in PBS at 2% v/v. To each well of a 96-well plate, 195 µL of red blood cell solution and 5 µL of biguanidium salt in DMSO were added, and the plate was incubated with light agitation for 1 h at 37 °C. The plate was then centrifuged for 10 min at 300g, and 50 µL of the supernatant solution of each well was transferred to another plate. Absorbance was measured at λ = 405 nm. Each measurement was performed in triplicate in three different experiments.

[1] = test system: NB508 mouse pancreatic ductal adenocarcinoma cells; experiment: In vitro growth inhibition screen at 5 µM, NB508 cells; type: cell-based; settings: 72 h at 37 °C
Description: (§1) Figure 1 (A) Structure and crystal packing of previously studied PEB-disubstituted (A.1) and monosubstituted (A.2 and A.3) benzimidazolium salts. Compound A.1 is an efficient chloride transporter forming channels and generating holes in bacterial membranes and red blood cellular membranes. Compound A.2 penetrates phospholipid membranes but is less efficient as ion transporter as it forms more compact aggregates; its toxicity on RBC is lower than compound A.1. The replacement of the phenyl group with a methyl group in compound A.3 results in the formation of even more compact aggregates with even lower toxicity on RBC. (B) Structure of PEB-substituted biguanidium salts. For each biguanide we prepared three series of biguanidium salts with different counterions. (C) Synthesis of 4-(phenylethynyl)benzylbiguanide 1 and 4-(phenylethyl)benzylbiguanide 2; (a) Phenylacetylene, PdCl2PPh3, CuI, PPh3, Et3N, THF, 70 °C, o.n. (b) NaCN(BH3)3, EtOHNH4OAc sat./NH3, 80 °C, o.n (c) Dicyandiamide, TMSCl, THFanh., 145 °C, 1 h (d) Pd/C 10%, H2, EtOH/AcOEt, 60 °C, 2 h. (D) Synthesis of 4-(phenylethynylphenyl)biguanidium 3 and 4-(phenylethylphenyl)biguanidium 4 (a) (1) Boc2O, THF, 2 h, (2) Phenylacetylene, PdCl2PPh3, CuI, PPH3, Et3N, THF, 70°, o.n. (b) TFA, DCM, 60 °C, 2 h (c) Dicyandiamide, TMSCl, THFanh, 145 °C, 1 h (d) Pd/C 10%, H2, EtOH/AcOEt, 60 °C, 2 h. The NMR spectra of the synthesized compounds are given in Supplementary Figs. S1–S24. (E) Relative growth of NB508 mouse pancreatic ductal adenocarcinoma cells and IMR90 fibroblasts exposed to 5 µM of PEB-biguanidium salts. Cells were incubated for 72 h at 37 °C. Errors bars represent the standard error of the mean (SEM), *p < 0.05, **p < 0.01, Student’s t test. (F) Crystal structure of 1b showing its self-assembly in the solid state. Crystal data is available in Supplementary Tables S1–S8 and crystal packing in Supplementary Fig. S25. TEXT PRINTED IN THE PICTURE: (A) A.1: HC50: 0.15 mM | (A) A.2: HC50: 1 mM | (A) A.3: HC50: 150 mM
NB508 is an aggressive pro-metastatic pancreatic cancer cell line that we used previously to study the role of mitochondria in pancreatic cancer. […].

KP4 cells = experiment: Growth assay (crystal violet), KP4 cells; type: cell-based, human; settings: Homo sapiens, KP-4, 72 h, KP4 cells, 3 days treatment, crystal violet retention assay; read-out: IC50 KP4
Protocol: (§2) All chemicals were purchased from Aldrich Chemicals in their highest purity and used without further purification. Deuterated dimethylsulfoxide (DMSO-d^6) and deuterated chloroform (CDCl3) were purchased from CDN Isotopes. NMR spectra were recorded on Bruker advance 400 and 100 spectrometers. Coupling constants are given in hertz (Hz) and chemical shifts are given in parts per million (ppm, δ) measured relative to the residual solvent (the multiplicity of the signals are given as s: singlet, d: doublet, t: triplet, and m: multiplet). High-resolution mass spectra (HRMS) were recorded on a TSQ Quantum Ultra (Thermo Scientific) triple quadrupole with accurate mass option instrument (Université de Montréal Mass Spectrometry Facility). MS experiences were performed using an UltrafleXtreme MALDI TOF/TOF mass spectrometer equipped with a SmartBeam II Nd:Yag/355 nm laser operating at 1 kHz and providing a laser focus down to 20 μm in diameter (Bruker Daltonics, Billerica, MA). The data acquisition for MS was performed in positive ion mode using the linear geometry with flexControl 3.4 (Bruker Daltonics, Billerica, MA). Acceleration voltage was set to + 25 kV and all other instrumental parameters (delayed extraction parameters, source voltages, detector gain, laser energy, etc.) were optimized for maximum S/N for the drug compounds. L-α-Phosphatidylcholine was purchased from Avanti Polar Lipids. Transport and depolarization studies as well as absorbance measurements were performed on a Varian Cary Eclipse fluorescence spectrophotometer. The hemolysis assays were performed on a Fluostar Optima plate reader. Single crystals of C18H18F3N5O3S were obtained from chloroform. A suitable crystal was selected and analysed on a Bruker Venture Metaljet diffractometer. Crystal violet retention assay was used for cell growth assays and IC50 were determined using Prism (GraphPad). NAD/NADH quantitation colorimetric kit (#K337-100) from Biovision was used according to manufacturer’s instructions. ECAR (extracellular acidification rate) and OCR of KP4 cells (oxygen consumption rate) were measured on a Seahorse XF-24 (Agilent).
(§3) Experimental. KP4 (Riken RCB1005) and PSN1 (ATCC: CRM-CRL-3211), were cultured in Dulbecco's modified Eagle's medium (DMEM) (Wisent, St-Bruno, QC) supplemented with 10 % of fetal bovine serum (FBS) (Wisent). HPNE hTERT (ATCC: CRL1423) were cultured in a mix of 75% DMEM without glucose (Sigma Cat#. D-5030) with additional 2 mM L-glutamine and 1.5 g/L sodium bicarbonate, 25% Medium M3 Base (Incell Corp. Cat# M300F- 500), fetal bovine serum 5% (wisent 10 ng/ml human recombinant EGF (Sigma-Aldrich), 5.5 mM D-glucose (Sigma-Aldrich), 750 ng/ml puromycin (Sigma-Aldrich). For dose-response assays, cells were seeded in 96 well plates (company). After 24 h, treatments were applied and cells were grown for 3 more days. Crystal violet retention assay used for cell growth assays were described previously^2. The data is expressed as relative absorbance of crystal violet extracted from the cells and diluted in 10 % acetic acid. IC50 were determined using Prism (GraphPad). Tumor spheres were grew according to Ferbeyre et al^3.

[2] = test system: HPNE cells (normal immortalized pancreatic epithelial cells); experiment: Growth assay (crystal violet), HPNE cells; type: cell-based, human; settings: 3 days treatment, crystal violet retention assay
Protocol: . The IC50 of most of the synthetic biguanides in HPNE cells was higher than for cancer cells (Supplementary Table S12).
as §2, §3

IMR90 fibroblasts = experiment: In vitro growth inhibition screen at 5 µM, IMR90 fibroblasts; type: cell-based, human; settings: 72 h
Description: as §1, with “The NMR spectra of the synthesized compounds are given in Supplementary Figs. S1–S24. (E) Relative growth of NB508 mouse pancreatic ductal adenocarcinoma cells and IMR90 fibroblasts exposed to 5 µM of PEB-biguanidium salts. Cells were incubated for 72 h at 37 °C. Errors bars represent the standard error of the mean (SEM), *p < 0.05, **p < 0.01, Student’s t test. (F) Crystal structure of 1b showing its self-assembly in the solid state. Crystal data is available in Supplementary Tables S1–S8 and crystal packing in Supplementary Fig. S25. TEXT PRINTED IN THE PICTURE: (A) A.1: HC50: 0.15 mM | (A) A.2: HC50: 1 mM | (A) A.3: HC50: 150 mM” left out

[3] = Safranin O assay, membrane potential of EYPC liposomes; settings: 5 mM (50 mol% relative to 10 mM EYPC)
Protocol: (§4) Figure 2 (A) Partition of compounds in an U-tube experiment. Concentration of biguanide on the trans-side of the U-tube at 48 h and 72 h at 25 °C, after addition of 250 µM of biguanide on the cis-side. (B) Variation in the internal pH of HPTS-containing EYPC liposomes. Intravesicular solution: 1 mM HPTS, 10 mM HEPES, and 100 mM NaCl, adjusted to pH = 7.4, and extravesicular solution: 10 mM HEPES and 100 mM NaCl, adjusted to pH = 7.4. Biguanidiums were injected after 50 s at 5 mM (50 mol% relative to the 10 mM EYPC concentration), a NaOH pulse was induced at 300 s, and the liposomes were lysed with Triton-X at 550 s. Each curve is the average of three independent measurements. (C) Fluorescence of safranin O in the EYPC liposomes. Biguanidium salts were injected at 5 mM (50 mol% relative to the 10 mM EYPC concentration) at 50 s. Each curve is the average of three independent measurements. […] Mitochondrial isolation was performed according to the previously reported protocol.

[4] = HPTS assay, internal pH of EYPC liposomes; settings: 5 mM (50 mol% relative to 10 mM EYPC), NaOH pulse at 300 s
Protocol: as §4

KP4 tumor sections = experiment: KI67 and cleaved caspase 3 staining of tumor sections from treated mice; type: in vivo, nude mice; settings: 50 mg/kg, tumor sections after treatment
Description: (B) Body weight of mice seven days after treatment. […] Representative images shown. Scale bar = 100 µm.
To assess the mechanism of the antitumor activity, we stained tumor sections obtained from animals after the treatment protocol for proliferation marker KI67 and apoptosis marker cleaved caspase 3, and quantified the data according to the scoring key in Fig. 5C. […] However, there were no significant differences in staining for cleaved caspase 3 […].

[5] = U-tube experiment (partition across a bulk hydrophobic solvent); type: physicochemical; settings: 250 µM on cis side, up to 72 h
Protocol: as §4
Experimental. U-tube experiment was prepared by adding 800 µL of dichloromethane in a U-shaped tube as a representation of the hydrophobic lipid membrane. On the receiving end (trans side) of the tube was added 300 µL of distilled water while the other side (cis side) was filled with 300 µL of a 250 µM solution of the compound of interest at 25°C. At 48h and 72h, 100 µL aliquot of the trans side was diluted in 900 µL methanol and monitored by LCMS (292 m/z). Area under curve (AUC) was measured and fitted on a calibration curve.

[6] = test system: KP4 cells sub-cutaneous xenografts; experiment: KP4 sub-cutaneous xenografts in nude mice; settings: 50 mg/kg/day IP, 5 day/week, from day 11 post engraftment, 37 days
Description: This dose was chosen from previous work on biguanides to treat mice with pancreatic cancer.
Figure 5 Progression of the volume of KP4 cells sub-cutaneous xenografts performed in nude mice over 37 days. […] (B) Body weight of mice seven days after treatment. […] Representative images shown. Scale bar = 100 µm. […] Results are shown in graphics comparing the percentage of cells stained in each category and the intensity of staining. (E,G) Images of the most representative phenotypes for KI67 staining (E) and cleaved caspase 3 (G).
Experimental. All experiments were performed in accordance to the rules of the in vivo ethical committe of University of Montreal (CDEA #17-103). 6-7 weeks old female nude mice (Hsd:Athymic Nude- Foxn1nu, Envigo) were implanted sub-cutaneously with 750.000 KP4 cells in 100μl of a sterile mix of 20% Matrigel (Corning) in saline solution. Tumor volume was determined by using a caliper, following the formula 4/3*Π*(L*W*T) were L represent the length of the tumor, W, the width, and T, the thickness (all measured in millimeter). […] The compounds were dissolved in the vehicle: 45% Propyleneglycol (Sigma-Aldrich) +5% Tween 80 (Sigma-Aldrich) + ddH2O.

N=C(N)NC(=N)NCc1ccc(C#Cc2ccccc2)cc1 [1a, 4-(phenylethynyl)benzylbiguanide]
HC 10% (µM) (red blood cells): > 175 µM
HC 10% (µg/ml) (red blood cells): > 100 µg/mL
Growth inhibition of NB508 cells [1]: most important antiproliferative activities
pIC50 (KP4 cells): 5.12
pIC50 [2]: 4.79
Selectivity towards cancer cells (NB508 vs IMR90 fibroblasts) (IMR90 fibroblasts): good selectivity towards cancer cells

[H]/N=C(/N)N/C(=N/[H])NCCc1ccccc1 [phenformin, reference compound]
Membrane depolarization (Safranin-O fluorescence) [3]: did not show this activity
Change of internal vesicular pH (HPTS) [4]: no membrane activity
Growth inhibition of NB508 cells [1]: no effect was observed
KI67 staining in tumors (KP4 tumor sections): to a smaller extent
Crossing to the trans-aqueous side of the U-tube (in words) [5]: only traces
Effect on tumor volume [6]: only modest or non-significant effects
